Measurements from patent US11471502B2, “Neuroprotective peptide” (UNIVERSITY COLLEGE CARDIFF C[…], priority 2017, dated 2022).

Key:
[1] = tested on: ERK-dependent nuclear signalling (histone H3) and cytoplasmic signalling (ribosomal protein S6); assay: Ex vivo acute slices, glutamate stimulation, immunofluorescence for phospho-acetyl histone H3 and phospho-S6; assay type: cell-based, mouse; conditions: 50 μM peptide, glutamate 100 μM
Procedure: a) RB5 peptide selectively promoted activation of ERK2. Acute striatal slices either pre-treated with Scramble (SCR) or RB5 peptide (50 μM) and then stimulated 10 minutes with glutamate (GLU) (100 μM) or vehicle were analysed in Western blot (left panel) and probed with anti phospho ERK antibodies (p44^ERK1 and p42^ERK2) and anti ERK1/2 antibody. GAPDH was used as loading control. […] No changes were detected in the total ERK1 and ERK2 levels. GAPDH was used as loading control. […] Mice injected with a single dose of CPP-SCR or CPP-RB5 peptides (20 mg/kg, i.p.) were rapidly perfused 1 h later and brains were dissected and further analysed for IHC and immunofluorescence. Representative photomicrographs of pERK1/2, pMSK, pAch3, pELK1 and c-Fos expression in the striatum. […] Two-way ANOVA Bonferroni post hoc comparison: one black star, p<0.05, two black stars, p<0.01, one white star, p<0.001. p) Dose response curve of RB5 peptide for ERK activation. 200 μm thick striatal slices were freshly prepared from 2-month old mice and transferred into a perfusion chamber for 1 h at 32° C. Slices were pre-treated with different doses of RB5 or scrambled control. After 1 h, slices for each dose was fixed in PFA 4% for 15 min. 18 μm cryo-sections were processed for immunohistochemistry with anti-phospho p44/p42 MAP kinase. Neuronal quantification was performed with ImageJ software by counting the number of phospho-ERK positive cells in each slice. The level of activation is expressed on the Y-axis as arbitrary units (AU). Doses are reported in a logarithmic scale (Log 10) on the X-axis. The EC50 was calculated using GraphPad Prism software.
Adult mice were anesthetized and decapitated. […]
Slides were placed in a humid chamber and 1 h after blocking in 5% normal goat serum and 0.1% Triton X-100 solution, they were incubated overnight at 4° C. with one of the following primary antibodies: anti-phospho-S6 ribosomal protein (Ser235/236) (1:200 Cell Signalling Technology, Danvers, Mass.), anti-phospho-S6 ribosomal protein (Ser240/244) (1:200 Cell Signalling Technology, Danvers, Mass.), anti-phospho (Ser10)-acetylated (Lys14) histone H3 (1:1000 (Millipore, Billerica, Mass.) or Cleaved Caspase 3 (1:200 Cell Signalling Technology, Danvers, Mass.) and anti-NeuN (1:1000 Millipore, Billerica, Mass.) followed by appropriate secondary antibodies. […] Neuronal quantification is performed with ImageJ software by counting phospho-S6 immunoreactive or pH3 neurons among NeuN positive neurons in each slide (n=10 for each experimental group). […]

[2] = tested on: embryonic striatal cultures; assay: TUNEL apoptosis in neuronal embryonic striatal cultures; assay type: cell-based, mouse
Procedure: Data are expressed as Mean±SEM, n=5. Two-way ANOVA Bonferroni post-hoc comparison **p<0.01.
Embryonic cultures (E16) were prepared from striata of WT mice, plated onto poly-L-lysine coated glass and kept for 10 days in culture medium as previously described (Fasano et al, Biol Psy 2009). Two different concentrations (20 μM and 50 μM) of CPP-RB5 and CPP-SCR peptides were added to the culture medium by the third day and replaced every day. On day 11, cells were fixed with 4% PFA pH 7.4 in PBS for 10 min.
The DeadEnd Colorimetric TUNEL System (Promega) was used to detect apoptotic cells in cultured cells labelling the fragmented DNA of apoptotic cells using a modified TUNEL assay. TUNEL staining was realized with diaminobenzide (DAB) following the manufacture's protocol. Sample areas were digitized through a video camera (Nicon) connected to a Zeiss microscope using a 20× objective. 4 areas were counted and averaged for each plate.

Molecule	phospho (Ser10)-acetyl(Lys14)-histone-H3, nuclear ERK signalling [1]	phospho-S6 ribosomal protein, cytosolic/cytoplasmic signalling [1]	reduction of apoptosis compared to CPP-SCR values ([2]; 50 μM, 7 consecutive days, TUNEL) [%]	apoptotic levels (TUNEL apoptotic nuclei) ([2]; higher dose (50 μM), 7 days, vs Scramble)
GRKKRRQRRRPPQGGGGGEPRRTEGVGPGVPGEVEMVKGQPFDV (listed as Homo sapiens) [CPP-RB5]	massive intra-nuclear MAPKs substrate activation	no effect	32	
CSCC[C@H](NC(=O)[C@H](CCC(=O)O)NC(=O)[C@@H](NC(=O)[C@H](CCC(=O)O)NC(=O)CNC(=O)[C@@H]1CCCN1C(=O)[C@@H](NC(=O)CNC(=O)[C@@H]1CCCN1C(=O)CNC(=O)[C@@H](NC(=O)CNC(=O)[C@H](CCC(=O)O)NC(=O)[C@@H](NC(=O)[C@H](CCCNC(=N)N)NC(=O)[C@H](CCCNC(=N)N)NC(=O)[C@@H]1CCCN1C(=O)[C@H](CCC(=O)O)NC(=O)CNC(=O)CNC(=O)CNC(=O)CNC(=O)CNC(=O)[C@H](CCC(N)=O)NC(=O)[C@@H]1CCCN1C(=O)[C@@H]1CCCN1C(=O)[C@H](CCCNC(=N)N)NC(=O)[C@H](CCCNC(=N)N)NC(=O)[C@H](CCCNC(=N)N)NC(=O)[C@H](CCC(N)=O)NC(=O)[C@H](CCCNC(=N)N)NC(=O)[C@H](CCCNC(=N)N)NC(=O)[C@H](CCCCN)NC(=O)[C@H](CCCCN)NC(=O)[C@H](CCCNC(=N)N)NC(=O)CNC(C)=O)[C@@H](C)O)C(C)C)C(C)C)C(C)C)C(=O)N[C@H](C(=O)N[C@@H](CCCCN)C(=O)NCC(=O)N[C@@H](CCC(N)=O)C(=O)N1CCC[C@H]1C(=O)N[C@@H](Cc1ccccc1)C(=O)N[C@@H](CC(=O)O)C(=O)N[C@@H](C(=O)O)C(C)C)C(C)C [RB5]	promotes	not activated		significant reduction of apoptotic levels
